Reference: patent publication US11376224B2, “System for delivery of FK506 for enhancing nerve regeneration” (THE HOSPITAL FOR SICK CHILDREN, priority 2016, dated 2022)

Experiment: FK506 tissue concentrations (organ exposure) by mass spectrometry after drug delivery system implantation
Type: in vivo, Sprague-Dawley rats
Method: FK506 was detectable within the proximal injured sciatic nerve, DRGs (L4, L5), the entire spinal cord, and the muscles surrounding the nerve repair site, decreasing in concentration over time. FK506 content within the tissues was determined using mass spectrometry. (Mean±standard deviation, n=4).
Thirty adult female Sprague-Dawley rats were randomized into five groups (n=6). The experimental group included rats treated with fibrin gel loaded with FK506 by incorporating 10 microliters solubilized FK506 in acetonitrile (2 milligrams per milliliter), 200 micrograms solid FK506 particulates, or 5 milligrams of FK506 containing microspheres into the thrombin solution before it was mixed with fibrinogen to form a gel.
During the procedure, the sciatic nerve was exposed and the main branches were dissected. The tibial (TIB) nerve was transected 5 millimeters distal to its bifurcation from the common peroneal (CP) nerve and sural nerves with fine microsurgical scissors. The proximal TIB nerve stump was cross-sutured to the distal stump of a cut CP nerve. In the groups receiving the fibrin gel based drug delivery system, the nerve suture site was surrounded by two 40 microliters of the fibrin gels (containing applicable components for each group) formed by pipetting the fluid fibrin mixture onto a Parafilm sheet as semi-rectangular drops (˜5×5 millimeters) and placing the drops above and below the repair site. By gently opposing the drops, the delivery system was secured around the nerve. Three weeks after repair, the number of neurons that regenerated their axons were determined using retrograde labeling 7 millimeter distal to the repair site. Nerve samples at the location of retrograde labeling were collected for histomorphometric analysis. Using mass spectrometry, FK506 tissue concentrations were analyzed at the site of the injury, in sciatic nerve, dorsal root ganglia (DRGs), spinal cord, brain, heart, liver, kidney, and plasma at 7, 14, and 28 days post repair.

[1] = first week of drug release in vivo (7 days)

With `C=CC[C@@H]1/C=C(\C)C[C@H](C)C[C@H](OC)[C@H]2O[C@@](O)(C(=O)C(=O)N3CCCC[C@H]3C(=O)O[C@H](/C(C)=C/[C@@H]3CC[C@@H](O)[C@H](OC)C3)[C@H](C)[C@@H](O)CC1=O)[C@H](C)C[C@@H]2OC` [FK506] the “FK506 levels in sciatic nerve, gluteal muscles, spinal cord, kidney” value (at 14 days) was “barely detectable levels”, the “FK506 within the DRGs (L4, L5)” value (at 14 days) was “accumulation” and the “FK506 within the DRGs (L4, L5)” value (at 28 days) was “undetectable”. For the same compound, the “FK506 levels in sciatic nerve, gluteal muscles, spinal cord, kidney” value (by 28 days) was “undetectable levels”, the “FK506 in contralateral sciatic nerve, contralateral gluteal muscles, contralateral L4-L5 DRGs” value (entire period of the treatment) was “did not contain any FK506” and the “FK506 in plasma, brain, liver, or heart” value (entire study period) was “not detectable”. For the same compound, the “FK506 in entire spinal cord” value [1] was “highest level”, the “FK506 in gluteal muscles surrounding the nerve” value [1] was “detected” and the “FK506 in proximal injured sciatic nerve” value [1] was “detected”.
